Measured values published in patent US10994015B2, “EGFR proteolysis targeting chimeric molecules and associated methods of use” (Arvinas Operations, Inc., priority 2016, dated 2021).

Assays:
[1] = target: EGFR L858R/T790M double mutant (H1975) (Homo sapiens (Human), UniProt P00533, L858R/T790M); test: EGFR protein degradation assay (Western blot); type: cell-based; conditions: 72 hours, 300 nM to 10 nM
How it was run: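 Cells carrying the relevant EGFR form were plated at 300,000 cells per well in 6-well plates and left to attach overnight. After washing in ice-cold PBS, cells were lysed in 400 μl lysis buffer with protease inhibitors, scraped, and clarified at 10 000 rpm for 10 minutes. EGFR levels were then assessed by Western blot with tubulin as loading control.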

[2] = target: HER2 InsYVMA (Homo sapiens (Human), UniProt P04626, INS775YVMA); test: TR-FRET assay for ERBB kinases; type: biochemical; conditions: geometric mean if measured more than once
Protocol: TR-FRET Assay for ERBB Kinases
All compounds and PROTACs were serially diluted in three-fold increments using 100% DMSO, followed by an intermediate 10-fold dilution using Buffer A (50 mM HEPES, pH 7.5, 50 mM NaCl, 10 mM MgCl2, 1 mM DTT, and 0.1% Pluronic F-68). Two microliters of serially diluted compound or PROTAC were then transferred to black 384-well Proxiplates (PerkinElmer, #6008260) using an Integra Viaflo96. Next, 10 uL of protein kinase in Buffer A was added to each well of the assay plate and pre-incubated with compound for 10 minutes. Kinase reactions were then initiated by addition of 5 uL substrate mix containing 3 mM ATP and 30 uM fluorescein-labeled Poly-GluTyr (Thermo Fisher, #PV3610) in Buffer A and allowed to proceed for 10 minutes at room temperature. Reactions were quenched by addition of a 5 uL mixture containing 5 nM LanthaScreen® Tb-pY20 Antibody (Thermo Fisher, #PV3552) and 40 mM EDTA in Buffer A. Assay plates were then read using a Synergy2 (Biotek Instruments, Winooski, Vt.) via excitation thru a 340/20 nm bandpass filter and emission collected thru 490/10 nm (donor) and 520/25 nm (acceptor) bandpass filters. The final kinase concentrations used for each 15 uL reaction were as follows: 0.2 nM EGFR Exon20NPG (SignalChem, #E10-132GG), 0.1 nM wild type EGFR (BPS Bioscience, #40187), 0.3 nM EGFR L858R/T790M/C797S (BPS Bioscience, #40351), 0.1 nM EGFR L858R (BPS Bioscience, #40189), 0.4 nM L858R/T790M (BPS Bioscience, #40350), InM EGFR Dell9 (SignalChem, #E10-122JG), 10 nM EGFR Dell9 T790M (SignalChem, #E10-122KG), 0.3 nM Her2 (BPS Bioscience, #40230), 15 nM Her2 InsYVMA (SignalChem, #E27-13BG).

[3] = target: EGFR Δ19/746/750 (Homo sapiens (Human), UniProt P00533, DEL746-750); test: TR-FRET assay for ERBB kinases; type: biochemical; conditions: geometric mean if measured more than once
How it was run: (§1)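 Compounds pre-incubated 10 min with kinase in HEPES pH 7.5 buffer (MgCl2, DTT, Pluronic), then reaction started with substrate mix (3 mM ATP, 30 µM fluorescein-poly-GluTyr, stock levels) for 10 min at room temperature. EDTA-quenched, detected by Tb-pY20 antibody TR-FRET (520/490 nm emission).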

[4] = target: HER2WT (Homo sapiens (Human), UniProt P04626); test: TR-FRET assay for ERBB kinases; type: biochemical; conditions: geometric mean if measured more than once
How it was run: as §1

[5] = target: EGFR L858R (Homo sapiens (Human), UniProt P00533, L858R); test: TR-FRET assay for ERBB kinases; type: biochemical; conditions: geometric mean if measured more than once
How it was run: as §1

[6] = target: EGFR Δ19/746/750 T790M (Homo sapiens (Human), UniProt P00533, DEL746-750/T790M); test: TR-FRET assay for ERBB kinases; type: biochemical; conditions: geometric mean if measured more than once
How it was run: as §1

[7] = target: EGFR WT (Homo sapiens (Human), UniProt P00533); test: TR-FRET assay for ERBB kinases; type: biochemical; conditions: geometric mean if measured more than once
How it was run: (§2)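 Read-out is TR-FRET between a terbium anti-phosphotyrosine (pY20) antibody and phosphorylated fluorescein-labelled poly-GluTyr, excited at 340 nm with donor 490 nm and acceptor 520 nm emission. Phosphorylation ran 10 min at room temperature after a 10 min compound–enzyme pre-incubation. The substrate mix contained 3 mM ATP.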

[8] = target: EGFR L858R/T790M (Homo sapiens (Human), UniProt P00533, L858R/T790M); test: TR-FRET assay for ERBB kinases; type: biochemical; conditions: geometric mean if measured more than once
How it was run: as §2

[9] = target: EGFR L858R/T790M/C797S (Homo sapiens (Human), UniProt P00533, C797S/L858R/T790M); test: TR-FRET assay for ERBB kinases; type: biochemical; conditions: geometric mean if measured more than once
How it was run: as §2

[10] = target: EGFR Exon 20 ASV (HeLa*) (Homo sapiens (Human), UniProt P00533, DUP767-769); test: EGFR protein degradation assay (Western blot); type: cell-based; conditions: 72 hours, 300 nM to 10 nM
[11] = target: EGFR-wt (MDA-MB-231 or MCF7 or A549 or OVCAR8) (Homo sapiens (Human), UniProt P00533); test: EGFR protein degradation assay (Western blot); type: cell-based; conditions: 72 hours, 300 nM to 10 nM
How it was run: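 Cells carrying the relevant EGFR form were plated at 300,000 per well in 6-well plates and left overnight to attach. For harvest, cells were rinsed once in ice-cold PBS and lysed in 400 μl lysis buffer containing protease inhibitors. Lysates were cleared at 10 000 rpm for 10 minutes and their protein content measured by BCA. Then 10 μg per sample was separated by SDS/PAGE at 165V for 2 hours, and EGFR was detected by ECL on a Chemidoc.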

[12] = target: EGFR Exon20NPG (Homo sapiens (Human), UniProt P00533, INS770NPG); test: TR-FRET assay for ERBB kinases; type: biochemical; conditions: geometric mean if measured more than once
How it was run: as §1

EGFR WT, sequence (P00533 25-1210): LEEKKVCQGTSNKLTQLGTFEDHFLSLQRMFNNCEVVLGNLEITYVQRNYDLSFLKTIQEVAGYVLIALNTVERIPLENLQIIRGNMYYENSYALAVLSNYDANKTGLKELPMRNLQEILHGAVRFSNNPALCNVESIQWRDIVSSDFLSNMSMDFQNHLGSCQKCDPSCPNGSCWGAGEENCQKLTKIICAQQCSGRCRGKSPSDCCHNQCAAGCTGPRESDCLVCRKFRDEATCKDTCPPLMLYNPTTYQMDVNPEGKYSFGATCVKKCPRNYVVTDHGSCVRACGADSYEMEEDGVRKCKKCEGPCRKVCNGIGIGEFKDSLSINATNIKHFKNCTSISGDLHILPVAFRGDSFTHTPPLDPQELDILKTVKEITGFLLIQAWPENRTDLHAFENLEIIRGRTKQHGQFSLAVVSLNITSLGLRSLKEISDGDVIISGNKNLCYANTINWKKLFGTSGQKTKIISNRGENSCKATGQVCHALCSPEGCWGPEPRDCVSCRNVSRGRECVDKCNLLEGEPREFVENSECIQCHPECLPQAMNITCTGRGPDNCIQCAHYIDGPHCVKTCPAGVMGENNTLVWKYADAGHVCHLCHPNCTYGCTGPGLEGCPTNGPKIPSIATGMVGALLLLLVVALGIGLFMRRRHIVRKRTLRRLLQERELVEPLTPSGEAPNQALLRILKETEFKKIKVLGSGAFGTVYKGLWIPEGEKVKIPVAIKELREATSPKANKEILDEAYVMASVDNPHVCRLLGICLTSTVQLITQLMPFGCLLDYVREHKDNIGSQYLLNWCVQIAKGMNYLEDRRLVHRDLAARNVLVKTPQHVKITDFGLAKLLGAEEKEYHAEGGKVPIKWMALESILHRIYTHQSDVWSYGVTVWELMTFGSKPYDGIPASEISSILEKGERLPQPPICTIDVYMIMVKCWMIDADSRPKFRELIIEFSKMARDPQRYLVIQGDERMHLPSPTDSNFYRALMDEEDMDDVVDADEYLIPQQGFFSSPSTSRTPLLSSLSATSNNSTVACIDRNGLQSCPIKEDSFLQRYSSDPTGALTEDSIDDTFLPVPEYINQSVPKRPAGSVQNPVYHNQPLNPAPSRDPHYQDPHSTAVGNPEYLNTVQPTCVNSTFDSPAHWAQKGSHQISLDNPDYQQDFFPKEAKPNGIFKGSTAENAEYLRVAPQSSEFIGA
HER2WT, sequence (P04626 23-1255): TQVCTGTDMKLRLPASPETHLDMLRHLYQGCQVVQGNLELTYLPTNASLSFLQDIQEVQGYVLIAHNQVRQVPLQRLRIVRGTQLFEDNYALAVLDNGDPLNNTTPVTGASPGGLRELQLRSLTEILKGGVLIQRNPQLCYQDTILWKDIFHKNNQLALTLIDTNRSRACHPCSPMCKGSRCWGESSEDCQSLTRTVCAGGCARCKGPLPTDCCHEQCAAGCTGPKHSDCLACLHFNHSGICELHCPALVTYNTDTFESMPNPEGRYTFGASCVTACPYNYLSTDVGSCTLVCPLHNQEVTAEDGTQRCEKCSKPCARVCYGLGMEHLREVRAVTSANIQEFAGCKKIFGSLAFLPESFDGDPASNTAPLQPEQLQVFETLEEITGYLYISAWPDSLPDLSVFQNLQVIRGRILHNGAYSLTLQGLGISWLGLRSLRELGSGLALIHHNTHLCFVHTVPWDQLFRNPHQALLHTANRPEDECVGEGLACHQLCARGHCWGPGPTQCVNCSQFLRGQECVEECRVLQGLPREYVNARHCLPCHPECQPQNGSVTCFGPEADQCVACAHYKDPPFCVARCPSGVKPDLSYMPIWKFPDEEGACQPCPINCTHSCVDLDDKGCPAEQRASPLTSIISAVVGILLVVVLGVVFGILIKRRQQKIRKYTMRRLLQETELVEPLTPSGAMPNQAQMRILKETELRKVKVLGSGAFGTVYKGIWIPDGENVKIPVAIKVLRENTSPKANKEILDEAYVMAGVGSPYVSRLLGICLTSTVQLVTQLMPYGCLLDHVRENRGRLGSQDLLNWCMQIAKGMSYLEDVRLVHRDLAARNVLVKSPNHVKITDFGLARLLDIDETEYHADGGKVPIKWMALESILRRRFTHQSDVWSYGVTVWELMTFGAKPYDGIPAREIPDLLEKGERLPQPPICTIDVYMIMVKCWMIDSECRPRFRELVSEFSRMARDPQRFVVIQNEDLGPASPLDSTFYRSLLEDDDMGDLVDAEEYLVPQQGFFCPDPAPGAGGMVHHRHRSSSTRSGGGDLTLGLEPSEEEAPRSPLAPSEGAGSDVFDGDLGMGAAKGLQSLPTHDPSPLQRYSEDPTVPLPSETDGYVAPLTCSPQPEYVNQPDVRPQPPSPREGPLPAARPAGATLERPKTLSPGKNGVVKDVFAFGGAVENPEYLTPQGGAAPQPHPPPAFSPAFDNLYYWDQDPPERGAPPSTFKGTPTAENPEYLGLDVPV
EGFR Δ19/746/750, sequence (P00533 other isoform, or with tags, fused parts or gaps del 1-694/del 746-750 limits assumed): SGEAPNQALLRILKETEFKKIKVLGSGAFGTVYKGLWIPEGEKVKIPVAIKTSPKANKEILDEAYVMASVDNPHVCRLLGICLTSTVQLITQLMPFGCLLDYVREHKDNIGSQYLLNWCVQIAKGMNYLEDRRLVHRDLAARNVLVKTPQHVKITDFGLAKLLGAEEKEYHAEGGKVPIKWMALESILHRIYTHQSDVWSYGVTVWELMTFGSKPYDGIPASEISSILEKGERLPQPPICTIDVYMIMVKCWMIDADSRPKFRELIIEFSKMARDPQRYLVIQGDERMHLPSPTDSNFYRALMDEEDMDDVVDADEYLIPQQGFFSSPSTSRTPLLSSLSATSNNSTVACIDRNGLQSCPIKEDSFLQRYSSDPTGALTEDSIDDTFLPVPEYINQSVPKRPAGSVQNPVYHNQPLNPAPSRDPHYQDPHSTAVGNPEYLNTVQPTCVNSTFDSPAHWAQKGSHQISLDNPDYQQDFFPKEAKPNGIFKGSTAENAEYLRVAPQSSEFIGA
EGFR L858R/T790M/C797S, sequence (P00533 25-1210 T790M/C797S/L858R): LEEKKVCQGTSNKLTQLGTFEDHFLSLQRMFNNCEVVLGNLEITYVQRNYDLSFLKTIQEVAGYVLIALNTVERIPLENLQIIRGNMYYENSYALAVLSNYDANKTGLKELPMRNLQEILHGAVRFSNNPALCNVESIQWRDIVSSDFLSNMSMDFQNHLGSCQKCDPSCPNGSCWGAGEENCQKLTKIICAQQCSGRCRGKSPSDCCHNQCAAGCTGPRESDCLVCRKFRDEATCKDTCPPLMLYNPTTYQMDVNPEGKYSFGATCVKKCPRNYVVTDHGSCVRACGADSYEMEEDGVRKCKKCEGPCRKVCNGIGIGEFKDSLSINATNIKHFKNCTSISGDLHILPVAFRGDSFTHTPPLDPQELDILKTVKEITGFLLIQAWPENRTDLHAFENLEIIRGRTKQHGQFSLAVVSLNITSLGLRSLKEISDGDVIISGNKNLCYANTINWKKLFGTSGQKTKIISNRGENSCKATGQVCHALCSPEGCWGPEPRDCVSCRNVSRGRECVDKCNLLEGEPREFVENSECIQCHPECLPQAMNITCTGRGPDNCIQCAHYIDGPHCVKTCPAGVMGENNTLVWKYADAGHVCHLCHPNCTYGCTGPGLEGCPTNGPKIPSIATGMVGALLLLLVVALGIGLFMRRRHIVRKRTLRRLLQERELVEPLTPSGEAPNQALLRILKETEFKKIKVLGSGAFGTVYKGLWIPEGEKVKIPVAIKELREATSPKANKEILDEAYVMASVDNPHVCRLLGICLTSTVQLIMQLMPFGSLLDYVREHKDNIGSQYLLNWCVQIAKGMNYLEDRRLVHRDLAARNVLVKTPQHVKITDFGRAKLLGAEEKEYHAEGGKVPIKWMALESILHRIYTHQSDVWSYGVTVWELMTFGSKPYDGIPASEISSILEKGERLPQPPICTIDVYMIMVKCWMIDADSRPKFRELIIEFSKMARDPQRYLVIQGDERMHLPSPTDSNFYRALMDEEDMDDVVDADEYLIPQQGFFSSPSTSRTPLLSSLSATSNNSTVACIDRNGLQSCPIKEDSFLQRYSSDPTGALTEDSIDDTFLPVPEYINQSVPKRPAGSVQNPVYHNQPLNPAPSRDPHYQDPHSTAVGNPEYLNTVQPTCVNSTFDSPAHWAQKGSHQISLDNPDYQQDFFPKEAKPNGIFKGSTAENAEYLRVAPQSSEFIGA
EGFR Δ19/746/750 T790M, sequence (P00533 other isoform, or with tags, fused parts or gaps T790M/del 1-694/del 746-750 limits assumed): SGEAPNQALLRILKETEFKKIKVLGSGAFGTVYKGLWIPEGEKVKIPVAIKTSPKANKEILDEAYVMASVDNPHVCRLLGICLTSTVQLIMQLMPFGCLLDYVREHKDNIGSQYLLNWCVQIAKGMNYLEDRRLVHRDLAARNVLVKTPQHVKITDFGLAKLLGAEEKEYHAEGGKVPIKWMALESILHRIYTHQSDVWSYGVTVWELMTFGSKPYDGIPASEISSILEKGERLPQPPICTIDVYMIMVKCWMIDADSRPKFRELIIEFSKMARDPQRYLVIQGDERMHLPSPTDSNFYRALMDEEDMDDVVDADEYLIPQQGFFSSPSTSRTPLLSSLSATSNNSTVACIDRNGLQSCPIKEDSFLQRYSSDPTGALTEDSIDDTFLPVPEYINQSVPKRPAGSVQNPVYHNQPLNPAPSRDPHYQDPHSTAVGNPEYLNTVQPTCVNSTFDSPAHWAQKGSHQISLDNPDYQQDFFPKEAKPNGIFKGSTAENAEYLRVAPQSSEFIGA

Compound | EGFR protein remaining, EGFR L858R/T790M double mutant [1] | IC50 [2] [µM] | IC50 [3] [µM] | IC50 [4] [µM] | IC50 [5] [µM] | IC50 [6] [µM] | IC50 [7] [µM] | IC50 [8] [µM] | IC50 [9] [µM] | EGFR protein remaining, EGFR Exon 20 ASV [10] | EGFR protein remaining, EGFR-wt [11] | IC50 [12] [µM]
COC1CCN(c2nccc(Nc3cc4c(cn3)nc(COCCOCCOCC(=O)N[C@H](C(=O)N3C[C@@H](O)C[C@@H]3C(=O)N[C@@H](C)c3ccc(-c5scnc5C)cc3)C(C)(C)C)n4C(C)C)n2)CC1 [compound 73] | C (>80% EGFR protein remaining after 72 hours of incubation with the test compound at a concentration of 300 nM) | 3.4 | 8.1 | > 30 | 9.8 | 6.8 | 20 | 11 | 14 | – | – | –
O=C1CCC(N2C(=O)c3cccc(NCCOCCOCCOCCN4CCN(Cc5ccc(-c6cc7c(NCc8ccccc8Cl)ncnc7[nH]6)cc5)CC4)c3C2=O)C(=O)N1 (stereo not shown) [compound 6] | C (>80% EGFR protein remaining after 72 hours of incubation with the test compound at a concentration of 300 nM) | – | 0.0029 | 0.52 | 0.047 | 2.2 | 0.064 | 8.9 | 3 | C (>80% EGFR protein remaining after 72 hours of incubation with the test compound at a concentration of 300 nM) | C (>80% EGFR protein remaining after 72 hours of incubation with the test compound at a concentration of 300 nM) | 0.23
Cc1ncsc1-c1ccc(CNC(=O)[C@@H]2C[C@@H](O)CN2C(=O)[C@@H](NC(=O)COCCOCCN2CCN(Cc3ccc(-c4cc5c(NCc6ccccc6Cl)ncnc5[nH]4)cc3)CC2)C(C)(C)C)cc1 [compound 4] | C (>80% EGFR protein remaining after 72 hours of incubation with the test compound at a concentration of 300 nM) | – | 0.0042 | 1.8 | 0.0083 | 24 | 0.045 | 22 | 10 | C (>80% EGFR protein remaining after 72 hours of incubation with the test compound at a concentration of 300 nM) | C (>80% EGFR protein remaining after 72 hours of incubation with the test compound at a concentration of 300 nM) | 0.29
